According to patent publication US20100137226A1, “FATIGUE-REDUCING AGENT” (KYOWA HAKKO BIO CO., LTD, priority 2006, published 2010):
Where two headings read alike, the source gives them in different places.

Test system: SD male rats bred under water immersion
Conditions: swim with burden of ca. 8% of body weight, n=4, FIG. 1

SMILES | swimming time (time until the tip of nose was submerged in water for 10 seconds or more) (reduced glutathione 800 mg/kg body weight orally once a day for 5 days of water immersion breeding) | swimming time (time until the tip of nose was submerged in water for 10 seconds or more) (ornithine 1000 mg/kg body weight orally once a day for 5 days of water immersion breeding)
N[C@@H](CCC(=O)N[C@@H](CS)C(=O)NCC(=O)O)C(=O)O [glutathione, reduced glutathione] | no change was recognized | –
Cl.NCCC[C@H](N)C(=O)O [ornithine, L-ornithine hydrochloride] | – | recovery of the swimming time was recognized
